What was measured:
[1] = Biodistribution in male ICR mouse bone at 0.74 MBq, iv administered into tail vein measured at 10 mins post-injection by automatic gamma counter analysis; assay type: ADME, organism-based, Bone element; conditions: in vivo
[2] = Stability of compound in saline at 37 degreeC incubated for 6 hrs by HPLC analysis; assay type: physicochemical; conditions: buffer
[3] = Drug uptake in male mouse cerebellum at 5 microCi/ml incubated for 30 mins by phosphor imager analysis; assay type: ADME, tissue-based; conditions: 0.5 h
[4] = Drug degradation in male mouse liver assessed as parent compound remaining at 26.6 MBq by radio-HPLC analysis; assay type: ADME, tissue-based
[5] = Biodistribution in male ICR mouse brain at 0.74 MBq, iv administered into tail vein measured at 30 mins post-injection by automatic gamma counter analysis; assay type: ADME, organism-based; conditions: in vivo, 0.5 h
[6] = Biodistribution in male ICR mouse bone at 0.74 MBq, iv administered into tail vein measured at 2 mins post-injection by automatic gamma counter analysis; assay type: ADME, organism-based, Bone element; conditions: in vivo
[7] = Biodistribution in male ICR mouse heart at 0.74 MBq, iv administered into tail vein measured at 60 mins post-injection by automatic gamma counter analysis; assay type: ADME, organism-based; conditions: in vivo, 1 h
[8] = Biodistribution in male ICR mouse blood at 0.74 MBq, iv administered into tail vein pre-treated with WL8 followed by compound addition by automatic gamma counter analysis relative to baseline; assay type: ADME, organism-based; conditions: in vivo
[9] = Biodistribution in male ICR mouse liver at 0.74 MBq, iv administered into tail vein by automatic gamma counter analysis; assay type: ADME, organism-based; conditions: in vivo
[10] = Drug degradation in male mouse plasma assessed as parent compound remaining at 26.6 MBq by radio-HPLC analysis; assay type: ADME, cell-free
[11] = Biodistribution in male ICR mouse bone at 0.74 MBq, iv administered into tail vein measured at 30 mins post-injection by automatic gamma counter analysis; assay type: ADME, organism-based, Bone element; conditions: in vivo, 0.5 h
[12] = Biodistribution in male ICR mouse blood at 0.74 MBq, iv administered into tail vein pre-treated with GSK'547 followed by compound addition by automatic gamma counter analysis relative to baseline; assay type: ADME, organism-based; conditions: in vivo
[13] = Biodistribution in male ICR mouse brain at 0.74 MBq, iv administered into tail vein pre-treated with GSK'547 by automatic gamma counter analysis; assay type: ADME, organism-based; conditions: in vivo
[14] = Biodistribution in male ICR mouse brain at 0.74 MBq, iv administered into tail vein measured at 60 mins post-injection by automatic gamma counter analysis; assay type: ADME, organism-based; conditions: in vivo, 1 h
[15] = Biodistribution in male ICR mouse brain at 0.74 MBq, iv administered into tail vein pre-treated with WL8 followed by compound addition by automatic gamma counter analysis relative to baseline; assay type: ADME, organism-based; conditions: in vivo
[16] = Biodistribution in male ICR mouse heart at 0.74 MBq, iv administered into tail vein pre-treated with WL8 followed by compound addition by automatic gamma counter analysis relative to baseline; assay type: ADME, organism-based; conditions: in vivo
[17] = Biodistribution in male ICR mouse brain at 0.74 MBq, iv administered into tail vein pre-treated with WL8 at 6 mg/kg followed by compound addition by automatic gamma counter analysis; assay type: ADME, organism-based; conditions: in vivo
[18] = Biodistribution in male ICR mouse stomach at 0.74 MBq, iv administered into tail vein pre-treated with GSK'547 followed by compound addition by automatic gamma counter analysis relative to baseline; assay type: ADME, organism-based; conditions: in vivo
[19] = Drug uptake in male Sprague-Dawley rat brain at 12.6 to 18.6 MBq, iv administered into tail vein measured after rapid washout by PET/CT imaging analysis; assay type: ADME, organism-based; conditions: in vivo, dose 12.6-18.6 MBq
[20] = Biodistribution in male ICR mouse brain at 0.74 MBq, iv administered into tail vein pre-treated with WL8 at 2 mg/kg followed by compound addition by automatic gamma counter analysis; assay type: ADME, organism-based; conditions: in vivo
[21] = Biodistribution in male ICR mouse brain at 0.74 MBq, iv administered into tail vein pre-treated with GSK'547 followed by compound addition by automatic gamma counter analysis relative to baseline; assay type: ADME, organism-based; conditions: in vivo
[22] = Biodistribution in male ICR mouse lung at 0.74 MBq, iv administered into tail vein pre-treated with GSK'547 followed by compound addition by automatic gamma counter analysis relative to baseline; assay type: ADME, organism-based; conditions: in vivo
[23] = Biodistribution in male ICR mouse pancreas at 0.74 MBq, iv administered into tail vein pre-treated with WL8 followed by compound addition by automatic gamma counter analysis relative to baseline; assay type: ADME, organism-based; conditions: in vivo
[24] = Biodistribution in male ICR mouse stomach at 0.74 MBq, iv administered into tail vein pre-treated with WL8 followed by compound addition by automatic gamma counter analysis relative to baseline; assay type: ADME, organism-based; conditions: in vivo
[25] = Drug uptake in male rat white matter region at 5 microCi/ml incubated for 30 mins by phosphor imager analysis; assay type: ADME, tissue-based, Brain white matter; conditions: 0.5 h
[26] = Biodistribution in male ICR mouse kidneys at 0.74 MBq, iv administered into tail vein by automatic gamma counter analysis; assay type: ADME, organism-based, Kidney; conditions: in vivo
[27] = Biodistribution in male ICR mouse lungs at 0.74 MBq, iv administered into tail vein measured at 60 mins post-injection by automatic gamma counter analysis; assay type: ADME, organism-based, Lung; conditions: in vivo, 1 h
[28] = Drug degradation in male mouse brain assessed as parent compound remaining at 26.6 MBq by radio-HPLC analysis; assay type: ADME, tissue-based
[29] = Biodistribution in male ICR mouse blood at 0.74 MBq, iv administered into tail vein pre-treated with WL8 followed by compound addition by automatic gamma counter analysis; assay type: ADME, organism-based; conditions: in vivo
[30] = Biodistribution in male ICR mouse kidney at 0.74 MBq, iv administered into tail vein pre-treated with GSK'547 followed by compound addition by automatic gamma counter analysis relative to baseline; assay type: ADME, organism-based; conditions: in vivo
[31] = Biodistribution in male ICR mouse liver at 0.74 MBq, iv administered into tail vein measured at 60 mins post-injection by automatic gamma counter analysis; assay type: ADME, organism-based; conditions: in vivo, 1 h
[32] = Biodistribution in male ICR mouse heart at 0.74 MBq, iv administered into tail vein pre-treated with GSK'547 followed by compound addition by automatic gamma counter analysis relative to baseline; assay type: ADME, organism-based; conditions: in vivo
[33] = Biodistribution in male ICR mouse heart at 0.74 MBq, iv administered into tail vein by automatic gamma counter analysis; assay type: ADME, organism-based; conditions: in vivo

Drug uptake [1]: 3.6 % ID/g
Stability [2]: Stable
Drug uptake [3]: Active
Stability [4]: 13.6%
Drug uptake [5]: 0.36 % ID/g
Drug uptake [6]: 3.09 % ID/g
Drug uptake [7]: < 4 % ID/g
Drug uptake [8]: Active
Drug uptake [9]: > 6.5 % ID/g
Stability [10]: 10.8%
Drug uptake [11]: 7.94 % ID/g
Drug uptake [12]: Active
Drug uptake [13]: 91%
Drug uptake [14]: 0.14 % ID/g
Drug uptake [15]: Active
Drug uptake [16]: Active
Drug uptake [17]: 129%
Drug uptake [18]: Active
SUV [19]: 0.12
Drug uptake [20]: 58%
Drug uptake [21]: Active
Drug uptake [22]: Active
Drug uptake [23]: Active
Drug uptake [24]: Active
Drug uptake [25]: Active
Drug uptake [26]: > 6.5 % ID/g
Drug uptake [27]: < 4 % ID/g
Stability [28]: 35.2%
Drug uptake [29]: > 58%
Drug uptake [30]: Active
Drug uptake [31]: < 4 % ID/g
Drug uptake [32]: Active
Drug uptake [33]: > 6.5 % ID/g
Structure (SMILES): Cc1ccc(C2CC=NN2C(=O)C2CCN(C(=O)c3cccc([18F])n3)CC2)cc1F (stereo not drawn)
